Reference: publication PMC9354243, “The Role of Tryptophan in π Interactions in Proteins: An Experimental Approach” (Journal of the American Chemical Society, 2022)
Where two headings read alike, the source gives them in different places.

What was measured:
5FW-LmrR = 5FW-LmrR (Lactococcus lactis subsp. cremoris, UniProt A2RI36); test: SPR binding of drugs to immobilized 5FW-LmrR; conditions: for Kd: Binding affinity, SPR, mean ± SD n = 3
Text: (§1) LmrR binds different drugs including Dau and RBF.[19],[20] To investigate the importance of π–π interactions for drug binding, the electron density in the π electron cloud of W96 was modulated by progressive fluorination of the W96 indole side chain. The binding affinities of LmrR for Dau and RBF decreased upon increasing degrees of fluorination of W96 (Table 2, Figure S3). […] Dau behaved less extreme, with the kd […] 6-fold (Table 2).
(§2) The thermodynamics of the LmrR–Dau interaction was recently reported to be mostly entropy driven.[21] To investigate this point in more detail the temperature dependence of the LmrR–Dau interaction was studied by surface plasmon resonance (SPR) experiments at 10 and 25 °C. […] The average ΔΔG from 6 LmrR variants is around 0.1 kJ/mol. These values imply that the temperature effects on the ΔGs are negligible, which would be in line with a low contribution of entropic factors to the Dau–LmrR interaction.
(§3) The SPR assays can also inform on the kinetics of the LmrR-drug interaction, but for the assays at 25 °C, the kon and koff rates could not be analyzed properly, because the rates were too fast at those conditions. The koff rates increase when the electron density of the π-electron cloud in W96 decreases, in support of a sizable contribution of the π–π stacking interaction to the drug binding affinity. […]
(§4) MALDI-TOF. A purified LmrR solution (~6 mg/ml) was diluted to ~0.5 mg/ml with 100 mM NH4HCO3, and incubated with 5 µg/ml of trypsin during 2 h at 37 °C. 1 µl of digested LmrR was spotted, dried and quickly washed with 1 µl MilliQ water twice. Subsequently, 1 µl of matrix solution (10 mg/ml α- cyano-4-hydroxycinnamate (LaserBio Labs) in 50 % acetonitrile/0.1 % (v/v) trifluoroacetic acid) was spotted on top of the washed sample. Spots were measured using a Voyager DE-PRO MALDI-TOF (time of flight) instrument (Applied Biosystems). The incorporation efficiency of Trp analog was calculated after measuring the peak areas of the peptide conta ining either Trp or Trp analog.
(§5) Binding assays - surface plasmon resonance (SPR). LmrR and mutants were immobilized on a CM5 sensor chip and binding of drugs was monitored using a BIACORE3000 system. The binding responses of Dau and RBF to LmrR were measured in triplicate at both 25 °C and 10 °C, in HBS-EP running buffer (10 mM HEPES, pH 7.4, 150 mM NaCl, 50 µM EDTA, and 0.005% surfactant P-20). The binding responses were corrected by subtracting the response measured in the control lane, to which a […]
(§6) This protein, 4-oxalocrotonate tautomerase mutant Ala33Asp15 was a gift of J.-Y. van der Meer. Steady state responses after injection of serial dilutions of Dau and RBF were used for the determination of the dissociation constant (K d) values, using the BIAevaluation v.4.1 (GE Healthcare ) and GraphPad Prism v5.00 software . The One site-Total equation from GraphPad Prism software was used for the calculation of Kd as follows:
(§7) Y=Bmax*X/(Kd+X) + NS*X + Background . Equilibrium response Y is obtained at ligand concentration X.
(§8) Bmax represents the maximum specific binding response to the same sensorchip. NS is the slope of nonspecific binding in Y units divided by X units. […]
(§9) without addition of ligand. Binding free energies, ΔGs, were derived from the dissociation constant K d according to […].
(§10) Where possible, rate constants were determined using the BIAevaluation v.4.1 (GE Healthcare ) software. k off values were determined by fitting a 1:1 (Langmuir ) binding model . Each koff value is the average of 3 determinations.

LmrR labeled with 5MeW = LmrR labeled with 5MeW (Lactococcus lactis subsp. cremoris, UniProt A2RI36); test: SPR binding of drugs to immobilized LmrR labeled with 5MeW; conditions: for Kd: Binding affinity, SPR, mean ± SD n = 3
Text: as §1, §2, §3, §4, §5, §6, §7, §8, §9, §10

W-LmrR = W-LmrR (Lactococcus lactis subsp. cremoris, UniProt A2RI36); test: SPR binding of drugs to immobilized wild type LmrR (W-LmrR); conditions: for Contribution of the π–π interactions to the total binding energy: extrapolation with 4,5,6,7tetraFW as baseline; for Kd: W (wild type) LmrR, SPR, mean ± SD n = 3
Text: as §1, §2, §3, §4, §5, §6, §7, §8, §9, §10

5,6,7triFW-LmrR = 5,6,7triFW-LmrR (Lactococcus lactis subsp. cremoris, UniProt A2RI36); test: SPR binding of drugs to immobilized 5,6,7triFW-LmrR; conditions: for Kd: Binding affinity, Kd, 5,6,7triFW LmrR, SPR, mean ± SD n = 3
Text: as §1, §2, §3, §4, §5, §6, §7, §8, §9, §10

5,6diFW-LmrR = 5,6diFW-LmrR (Lactococcus lactis subsp. cremoris, UniProt A2RI36); test: SPR binding of drugs to immobilized 5,6diFW-LmrR; conditions: for Kd: Binding affinity, Kd, 5,6diFW LmrR, SPR, mean ± SD n = 3
Text: as §1, §2, §3, §4, §5, §6, §7, §8, §9, §10

4,5,6,7tetraFW-LmrR = 4,5,6,7tetraFW-LmrR (Lactococcus lactis subsp. cremoris, UniProt A2RI36); test: biochemical; format: binding; conditions: for Fold decrease of LmrR binding affinity, W-LmrR to 4,5,6,7tetraFW-LmrR: equals enhancement of affinity by π–π stacking; for Kd: Binding affinity, Kd, 4,5,6,7tetraFW LmrR, SPR, mean ± SD n = 3
Text: LmrR binds different drugs including Dau and RBF.[19],[20] To investigate the importance of π–π interactions for drug binding, the electron density in the π electron cloud of W96 was modulated by progressive fluorination of the W96 indole side chain.
The thermodynamics of the LmrR–Dau interaction was recently reported to be mostly entropy driven.[21] To investigate this point in more detail the temperature dependence of the LmrR–Dau interaction was studied by surface plasmon resonance (SPR) experiments at 10 and 25 °C. […]
as §4, §5
This protein, 4-oxalocrotonate tautomerase mutant Ala33Asp15 was a gift of J.-Y. van der Meer. Steady state responses after injection

RibU W68Y mutant = test system: RibU W68Y mutant; design: method as in PMID 17289680; conditions: W68Y mutant versus RibU; cited from earlier work
[1] = 5FW LmrR, 25 °C, derived from Kd
[2] = 5MeW LmrR, 25 °C, derived from Kd
[3] = 5,6,7triFW LmrR, 25 °C, derived from Kd
[4] = 5,6diFW LmrR, 25 °C, derived from Kd
[5] = 4,5,6,7tetraFW LmrR, 25 °C, derived from Kd

Chain of 5,6,7triFW-LmrR (A2RI36 entry or part of it): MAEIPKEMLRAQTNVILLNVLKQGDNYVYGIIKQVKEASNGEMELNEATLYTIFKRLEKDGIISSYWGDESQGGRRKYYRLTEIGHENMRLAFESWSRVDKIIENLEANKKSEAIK
Chain of 5FW-LmrR (A2RI36 entry or part of it): as above
Chain of LmrR labeled with 5MeW (A2RI36 entry or part of it): as above
Chain of 5,6diFW-LmrR (A2RI36 entry or part of it): as above
Chain of 4,5,6,7tetraFW-LmrR (A2RI36 entry or part of it): as above
Chain of W-LmrR (A2RI36 entry or part of it): as above

COc1cccc2c1C(=O)c1c(O)c3c(c(O)c1C2=O)C[C@@](O)(C(C)=O)C[C@@H]3O[C@H]1C[C@H](N)[C@H](O)[C@H](C)O1 [Dau, Daunomycin]
koff (5FW-LmrR): 0.6 ± 0.001 s⁻¹
ΔΔG, ΔG10 °C – ΔG25 °C (5FW-LmrR; 5FW LmrR): 0.22 kcal/mol
Free energy of ligand binding ΔG10 °C (5FW-LmrR; 5FW LmrR, 10 °C, derived from Kd): –35.5 kJ/mol
Free energy of ligand binding ΔG25 °C (5FW-LmrR; [1]): –36.4 kJ/mol
Kd (5FW-LmrR; 5FW LmrR, 10 °C): 280 ± 40 nM
Kd (5FW-LmrR; 5FW LmrR, 25 °C): 430 ± 80 nM
koff (LmrR labeled with 5MeW): 0.2 ± 0.04 s⁻¹
ΔΔG, ΔG10 °C – ΔG25 °C (LmrR labeled with 5MeW; 5MeW LmrR): –1.1 kJ/mol
Free energy of ligand binding ΔG10 °C (LmrR labeled with 5MeW; 5MeW LmrR, 10 °C, derived from Kd): –37.8 kJ/mol
Free energy of ligand binding ΔG25 °C (LmrR labeled with 5MeW; [2]): –36.7 kJ/mol
Kd (LmrR labeled with 5MeW; 5MeW LmrR, 10 °C): 104 ± 5 nM
Kd (LmrR labeled with 5MeW; 5MeW LmrR, 25 °C): 370 ± 30 nM
koff (W-LmrR): 0.4 ± 0.07 s⁻¹
Contribution of the π–π interactions as share of the total binding energy (W-LmrR; 25 °C): 13%
Contribution of the π–π interactions to the total binding energy (W-LmrR; 25 °C): -1.15 kcal/mol
Kd (W-LmrR; Binding affinity, Kd, 10 °C): 315 ± 40 nM
Kd (W-LmrR; Binding affinity, Kd, 25 °C): 450 ± 50 nM
ΔΔG, ΔG10 °C – ΔG25 °C (W-LmrR; W LmrR): 0.22 kcal/mol
Free energy of ligand binding ΔG10 °C (W-LmrR; W LmrR, 10 °C, derived from Kd): –35.2 kJ/mol
Free energy of ligand binding ΔG25 °C (W-LmrR; W LmrR, 25 °C, derived from Kd): –36.2 kJ/mol
koff (5,6,7triFW-LmrR): 0.8 ± 0.1 s⁻¹
ΔΔG, ΔG10 °C – ΔG25 °C (5,6,7triFW-LmrR; 5,6,7triFW LmrR): –0.4 kJ/mol
Free energy of ligand binding ΔG10 °C (5,6,7triFW-LmrR; 5,6,7triFW LmrR, 10 °C, derived from Kd): –33.7 kJ/mol
Free energy of ligand binding ΔG25 °C (5,6,7triFW-LmrR; [3]): –33.3 kJ/mol
Kd (5,6,7triFW-LmrR; 10 °C): 590 ± 60 nM
Kd (5,6,7triFW-LmrR; 25 °C): 1440 ± 100 nM
ΔΔG, ΔG10 °C – ΔG25 °C (5,6diFW-LmrR; 5,6diFW LmrR): 0.048 kcal/mol
Free energy of ligand binding ΔG10 °C (5,6diFW-LmrR; 5,6diFW LmrR, 10 °C, derived from Kd): –33.9 kJ/mol
Free energy of ligand binding ΔG25 °C (5,6diFW-LmrR; [4]): –34.1 kJ/mol
Kd (5,6diFW-LmrR; 10 °C): 560 ± 50 nM
Kd (5,6diFW-LmrR; 25 °C): 1050 ± 60 nM
koff (4,5,6,7tetraFW-LmrR): 1.5 ± 0.09 s⁻¹
ΔΔG, ΔG10 °C – ΔG25 °C (4,5,6,7tetraFW-LmrR; 4,5,6,7tetraFW LmrR): 0.072 kcal/mol
Free energy of ligand binding ΔG10 °C (4,5,6,7tetraFW-LmrR; 4,5,6,7tetraFW LmrR, 10 °C, derived from Kd): –31.3 kJ/mol
Free energy of ligand binding ΔG25 °C (4,5,6,7tetraFW-LmrR; [5]): –31.6 kJ/mol
Fold decrease of LmrR binding affinity, W-LmrR to 4,5,6,7tetraFW-LmrR (4,5,6,7tetraFW-LmrR; 25 °C): 6 fold
Kd (4,5,6,7tetraFW-LmrR; 10 °C): 1680 ± 70 nM
Kd (4,5,6,7tetraFW-LmrR; 25 °C): 2880 ± 500 nM

Cc1cc2nc3c(=O)[nH]c(=O)nc-3n(C[C@H](O)[C@H](O)[C@H](O)CO)c2cc1C [RBF, riboflavin]
Free energy of ligand binding ΔG25 °C (5FW-LmrR; [1]): –34.3 kJ/mol
Kd (5FW-LmrR; 5FW LmrR, 25 °C): 970 ± 50 nM
Free energy of ligand binding ΔG25 °C (LmrR labeled with 5MeW; [2]): –36.6 kJ/mol
Kd (LmrR labeled with 5MeW; 5MeW LmrR, 25 °C): 380 ± 8 nM
Contribution of the π–π interactions as share of the total binding energy (W-LmrR; 25 °C): 29%
Contribution of the π–π interactions to the total binding energy (W-LmrR; 25 °C): -2.51 kcal/mol
Kd (W-LmrR; 25 °C, read-out: Binding affinity, Kd): 460 ± 50 nM
Free energy of ligand binding ΔG25 °C (W-LmrR; W LmrR, 25 °C, derived from Kd): –36.2 kJ/mol
Free energy of ligand binding ΔG25 °C (5,6,7triFW-LmrR; [3]): –29.0 kJ/mol
Kd (5,6,7triFW-LmrR; 25 °C): 8370 ± 200 nM
Free energy of ligand binding ΔG25 °C (5,6diFW-LmrR; [4]): –30.2 kJ/mol
Kd (5,6diFW-LmrR; 25 °C): 4990 ± 60 nM
Free energy of ligand binding ΔG25 °C (4,5,6,7tetraFW-LmrR; [5]): –25.7 kJ/mol
Fold decrease of LmrR binding affinity, W-LmrR to 4,5,6,7tetraFW-LmrR (4,5,6,7tetraFW-LmrR; 25 °C): 70 fold
Kd (4,5,6,7tetraFW-LmrR; 25 °C): 33400 ± 16000 nM
Fold drop of RBF binding affinity (RibU W68Y mutant): ~100 fold
